A value given as a limit tells only on which side of the number the result lay.

One data set concerns HSF. Nature of the data set: hsp70 promoter luciferase reporter assay in HeLa cell clone 13B (HSF activation). In kind it is cell-based, human. To be noted: HeLa clone 13B, 8 h treatment. The procedure: (§1) Method: HeLa cell clone 13B, stably transfected with a luciferase reporter plasmid controlled by the human hsp70 promoter, and HeLa κB-transformed cells, stably transfected with a luciferase reporter plasmid controlled by a synthetic NF-κB-STM construct, were maintained in DMEM medium supplemented with 10% FBS, L-glutamine (2 mM) and G418 (250 μg/ml) at 37° C. in a 5% CO2 humidified atmosphere.
(§2) Cells were seeded at a density of 4×10^4 cells/well in 96-well plates. After 18-20 h, the medium was removed and cells were treated for 8 h with the test compounds (100 μl) at the appropriate dilutions in serum-free medium. For the NF-κB-dependent reporter gene assay, cells were stimulated with TPA (25 ng/ml) 2h after exposure to the compounds.
(§3) After incubation, the medium was removed and cells were lysed in 10 μl of lysis buffer. The luciferase activity was determined by adding 100 μl of substrate and measuring the release of light using a Victor 1420 microplate reader (Wallac, Finland).
The AC200/μM for HSF is the concentration at which the tested compound doubled the HSF activity in this assay. The IC50/μM for NF-κB is the concentration at which the tested compound halved the NF-κB activity in this assay.
Background: In a reporter assay the amount or activity of a reporter protein is the signal.

Data set [1] relates to NF-κB. Nature of the data set: NF-κB-dependent luciferase reporter gene assay in HeLa κB-transformed cells, TPA stimulated. In kind it is cell-based. Particulars: Homo sapiens; HeLa NF-κB-STM luciferase, 8 h treatment, TPA 25 ng/ml 2 h after exposure; read-out: NF-κB; IC50 (concentration at which the tested compound halved the NF-κB activity). The procedure:
as §1, §2, §3
The fragment Kpn I-BamH I from the pGL3 basic vector containing the luciferase gene (PROMEGA) was inserted in the pcDNA3 vector (INVITROGEN) digested with Bgl II-KpnI. (This digestion removes the CMV-promoter from pcDNA3.) The resulting new vector was digested with Kpn I-Hind III and a promoter containing a ‘5×NF-κB binding sites—TATA box’ sequence was inserted upstream of the luciferase gene. […]

Another data set is described as follows: in vitro. In kind it is cell-based. Particulars: human. As for the experimental part: HeLa cells were plated in 96-well microtiter plates in 100 μl culture medium (4×10^4/well). After 20 hours, the cells were exposed to the test compounds at different dilutions and incubated for the next 8 h at 37° C. in a 5% CO2 humidified atmosphere. After 6 h incubation, the Alamar Blue was added in an amount equal to 10% of the culture volume (10 μl). Two hours after the addition of the Alamar Blue, the fluorescence was measured using a Victor 1420 microplate reader.
The LC50/μM is the concentration at which the tested compound killed half the cells in this assay.

The subject of the next data set is Sendai virus. Nature of the data set: Replication of Sendai virus in 37RC cells (HAU titration of virus yield). The format is cell-based. Particulars: Respirovirus muris, Sendai virus yield at 24 hours after infection, read-out: ID50 (50% inhibitory dose/concentration).
Another data set relates to 37RC cells. Nature of the data set: Neutral Red cell viability assay. The format is cell-based, monkey. To be noted: uninfected 37RC cells, 24 h. The procedure:
Cell viability was determined using the Neutral Red assay. 37RC cells were seeded at density of 6×10^4 cells/well in 24-well plates and incubated for 24 h. Confluent 37RC monolayers were treated with the test compounds at different dilutions for 24 h at 37° C. After incubation, the medium was removed and the cells were incubated with RPM1 medium containing 40 μg/ml Neutral Red dye (500 μl/well). After 2 h at 37° C., the monolayers were washed with phosphate-buffered saline (PBS) and then with a solution containing 1% CaCl2 and 0.5% formaldehyde. After washing, a solution containing 1% acetic acid/50% ethanol was added to the monolayers (250 μl/well). After 10 min at room temperature, the absorbance was determined with a microplate reader (Victor 1420, Wallac) at 540 nm.

In a further data set the test system is uninfected cells. Briefly: Toxicity to uninfected cells compared with the anti-viral concentration. The format is cell-based.
Data set [2] relates to NF-κB. Nature of the data set: Luciferase activity of resistant HeLa NF-κB-LUC cell pool after stimulation. Particulars: quadruplicate samples, control 1369±149. The format is cell-based, human. The source says:
The fragment Kpn I-BamH I from the pGL3 basic vector containing the luciferase gene (PROMEGA) was inserted in the pcDNA3 vector (INVITROGEN) digested with Bgl II-KpnI. (This digestion removes the CMV-promoter from pcDNA3.) The resulting new vector was digested with Kpn I-Hind III and a promoter containing a ‘5×NF-κB binding sites—TATA box’ sequence was inserted upstream of the luciferase gene. This vector has been named STM.
To obtain stable HeLa cell lines expressing the luciferase gene under the control of NF-κB, HeLa cells were transfected (using lipofectamine plus GIBCO) with the STM-Pvu I linearized vector, and selected for 20 days with G418 (800 μg/ml). After selection, the resistant HeLa cell pool was controlled (in quadruplicate samples) for luciferase activity after stimulation with TNFα, IL-1 and TPA. The respective luciferase activities were: • 1) Control: 1369±149 • 2) TNFα: 6111±1231 • 3) IL-1: 11814±1151 • 4) TPA: 7181±444 Clones were selected.

A further data set has as its system HSF1. Particulars: cited from earlier work.
Data set [3] relates to NF-κB. To be noted: chemical or physiological inducers; 'at the same concentration'; cited from earlier work.

Take `COC(=O)[C@H](CS[C@H]1CC(=O)CC[C@@H]1O[Si](C)(C)C(C)(C)C)NC(=O)OC(C)(C)C` [CTM-68, 2-tert-Butoxycarbonylamino-3-[2-(tert-butyl-dimethyl-silanyloxy)-5-oxo-cyclohexylsulfanyl]-propionic acid methyl ester]: the “HSF; AC200 (concentration at which the tested compound doubled the HSF activity)” value in the data set with HSF is 98 µM. Also, the IC50 worked out at 17000 nM with NF-κB [1] and 1000 nM in the data set on Sendai virus. Besides, the CC50 (usually the concentration giving 50% cytotoxicity) at 8 h in “in vitro” is above 800000 nM. For the same compound, the “LD50 (50% lethal dose/concentration)” value in the data set on 37RC cells came out at 9.8 µM.

Turning to `COC(=O)C(CSC1CC(=O)CC(O[Si](C)(C)C(C)(C)C)C1)NC(=O)OC(C)(C)C` (stereo not drawn) [CTM-78, 2-tert-Butoxycarbonylamino-3-[3-(tert-butyl-dimethyl-silanyloxy)-5-oxo-cyclohexylsulfanyl]-propionic acid methyl ester], in the data set with HSF, the “HSF; AC200 (concentration at which the tested compound doubled the HSF activity)” value is 45 µM. In addition, the IC50 in the data set on NF-κB [1] amounted to 22000 nM; in the data set on Sendai virus, 3000 nM. In “in vitro”, this compound displayed a CC50 at 8 h above 800000 nM. Further, the “LD50 (50% lethal dose/concentration)” value with 37RC cells was determined as 18.6 µM.

For `CC(C)(C)[Si](C)(C)OC1C=CC(=O)CC1` (stereo not drawn) [Compound A, 4-tert-butyldimethylsilyloxy-cyclohex-2-en-1-one], the IC50 in the data set with Sendai virus is 1000 nM. Besides, in the data set with uninfected cells, the “concentration of anti-viral effect relative to the concentration toxic to uninfected cells” value is reported as “below that at which they were toxic to uninfected cells”.

For `CC(C)(C)[Si](C)(C)OC1CC=CC(=O)C1` (stereo not drawn) [Compound B, 5-tert-butyldimethylsilyloxy-cyclohex-2-en-1-one], the IC50 in the data set with Sendai virus came out at 400 nM. Further, the “concentration of anti-viral effect relative to the concentration toxic to uninfected cells” value in the data set with uninfected cells is listed as “below that at which they were toxic to uninfected cells”.

Turning to `CCCCCCCCCCCCCC(=O)O[C@@H]1[C@@H](C)[C@@]2(O)[C@@H](C=C(CO)C[C@]3(O)C(=O)C(C)=C[C@@H]23)[C@@H]2C(C)(C)[C@]12OC(C)=O` [TPA, 12-O-tetradecanoylphorbol-13-acetate], the “luciferase activity after stimulation” value in the data set with NF-κB [2] worked out at 7181±444.

Consider `O=C1C=CCC1` [cyclopent-2-en-1-one], for which the “concentration shown to activate HSF1 and trigger synthesis of HSP70” value in the data set with HSF1 is 125 to 500 µM. In addition, the “concentration shown to block NF-κB activation” value in the data set on NF-κB [3] is 125 to 500 µM.

For TNFα, in the data set on NF-κB [2], the “luciferase activity after stimulation” value was 6111±1231.

These data come from US20050124696A1, “Pharmaceutical compositions” (priority 2001, published 2005).
